# Measured values from patent US20240287054A1, “COMPOUNDS THAT BIND NON-CANONICAL G-QUADRUPLEX STRUCTURES AND METHODS OF MAKING AND USING THE SAME” (The U.S.A., as Represented by the Secretary, Department of …, priority 2021, published 2024).
# Key:
# MYCN mRNA = assay: qRT-PCR of MYCN mRNA in NBEB cells; assay type: cell-based; details: NBEB cells, 24, 36, 48 h, higher concentrations
# Experimental: To examine the effects of G4-binding compounds on NBEB cells, live-cell imaging was performed using an Incucyte interface (described below). NBEB (5K/well), cells were seeded into 96-well plates in triplicate, treated with compound MY-8 at various concentrations (0-45 μM), and cultured until control wells reached confluence. For RT-qPCR and western blotting, NBEB (300K) cells were treated with MY-8 in 6-well dish for 48 h. To examine the time-dependent decrease in MYCNOs expression, cells were treated with 22.5 μM and 45 μM MY-8 and analyzed at various times (0, 4, 24, 48, 72 and 96 h). To validate cell viability, a Trypan Blue exclusion test was performed following treatment at 48 h and 96 h post treatment and the proportion of live versus dead cells was calculated using a hemocytometer.
# Quantitative RT-PCR. Total RNA was extracted from NBEB cells according to manufacturer's instructions (RNeasy Plus Mini Extraction kit (#74134) (Qiagen, CA). RNA (1 μg) was reverse transcribed into cDNA using the cDNA synthesis High-Capacity RNA-to-cDNA™ Kit. Quantitative PCR was performed using Fast SYBR™ Green Master Mix according to the manufacturer's protocol. Beta-actin was used as a housekeeping gene. Relative expression was calculated using the 2(−ΔCt) method. The qPCR primer sequences can be found in supplementary materials.
# NBEB cells = assay: Incucyte live cell imaging of cell confluence; assay type: cell-based; details: 4-day measurement after single treatment, 0-45 μM
# Experimental: Cell lines and cell culture. The neuroblastoma cell line NBEB (Single Copy MYCN) cells were used to evaluate the efficacy of the MYCN/MYCNOs G-quadruplex binding molecules. NBEB came from stocks in Pediatric Oncology Branch, National Cancer Institute, National Institutes of Health, Bethesda, MD and have been […]. Cells were cultured in RPMI-1640, supplemented with 10% FBS (Atlanta Biologicals, Atlanta), 2 mM glutamine (Life Technologies, New York), and antibiotics (penicillin 100 μg/mL, streptomycin 100 μg/mL; Life Technologies, New York) at 37° C. in a 5% CO2 incubator.
# To examine the effects of G4-binding compounds on NBEB cells, live-cell imaging was performed using an Incucyte interface (described below). […] To examine the time-dependent decrease in MYCNOs expression, cells were treated with 22.5 μM and 45 μM MY-8 and analyzed at various times (0, 4, 24, 48, 72 and 96 h). To validate cell viability, a Trypan Blue exclusion test was performed following treatment at 48 h and 96 h post treatment and the proportion of live versus dead cells was calculated using a hemocytometer.
# Incucyte live cell imaging system. […] Incucyte measured cell confluence from pre-defined processing definitions for NBEB NB cells. […]
# dsDNA = assay: SPR binding to dsDNA; details: up to 5 μM compound injection
# MYCN G4 DNA = assay: Fluorescence quenching of position-labeled MYCN G4 (2-AP at A11/A18/A24, 5′/3′-Cy5); assay type: binding, human
# Experimental: Fluorescence intensity assay. In this disclosure, fluorescence intensity assay (FIA) was used for both validation of hit binding at a single dose and binding affinity determination. For validating hit compounds from SMM screening, 100 μM solution of each compound was prepared in triplicate in a 96 well-plate (Costar, black side clear bottom), resulting in 5% DMSO concentration. 5′Cy5-labeled MYCN G4 DNA was annealed as described above, then added into the well plate resulting in a final concentration of 100 nM. The plate was incubated shaking for 30 min, followed by centrifuging at 500 rpm for 2 minutes. The fluorescence intensity was then measured on a Synergy Mx microplate reader (BioTek) at Ex 649 nm/Em 670 nm. TMPyP4/DMSO were used as positive and negative controls, respectively. In certain examples, compounds were considered binders when a change of >10% change in fluorescence intensity was observed compared to that of negative control (DMSO solution). For binding affinity measurement, small molecule solutions were prepared as serial dilutions in DMSO. Then a final test plate was prepared by adding 5 μL small molecule solutions and 10 μL annealed DNA samples into 85 μL buffer solutions, resulting in the final small molecule concentrations from 0 to 250 μM (5% final DMSO concentration). The fluorescence intensities were normalized, and the binding affinity was calculated by fitting the curve using one-site total model in GraphPad Prism 8.3.1 software. The fluorescence titration using 3′-labeled oligonucleotides was also performed the same way.
# 2-Aminopurine (2-AP) fluorescence titration. Fluorescence titrations based on 2-aminopurine labeling were performed using the protocol reported previously. Briefly, MYCN G4 oligonucleotide with a 2-AP substitution at either A11 or A18 position was annealed by heating the sample to 95° C. for 5 min and cooling down to RT slowly. The oligonucleotide with folded structure was diluted to 10 μM in Tris buffer (10 mM Tris, pH7.0, 100 mM KCl, 0.005% Tween 20) and prepared in a black 96-well plate (Costar) in triplicate as designed. Small molecules were diluted in DMSO to obtain a series of solutions with concentrations ranging from 0.1 to 5 mM, and then diluted by 20 times added into the plate (5% DMSO final concentration). The final concentration of 2-AP DNA was 1 μM in the well plate. To obtain the background fluorescence, small molecule solutions without DNA were also prepared in the same plate. After incubation for 30 min at RT, the plate was briefly centrifuged and scanned in Synergy Mx microplate reader (BioTek) with Ex 310 nm/Em 365 nm. Fluorescence signals were calculated by averaging the intensities in triplicate wells after subtracting the references. Finally, the binding signals were normalized and the KD value was determined by fitting the curve using a nonlinear sigmoidal dose-response model with a variable slope in GraphPad Prism 8.3.1 software.
# To further understand the binding details between compound MY-1 and MYCN G4, a series of FIA studies were designed and performed. […] After incubating 100 μM MY-1 with labeled DNA samples, fluorescence intensities were measured and compared to DMSO controls. Fluorescence of the A11 2-AP DNA sample was quenched by almost 100%, while the quenching percentages were 80% and 70% for A18 and A24 2-AP DNAs, respectively (FIG. 24B, FIGS. 25A-25C). […]
smiles,measurement,setting,value
"COc1ccc(-c2noc(-c3ccc(NCCCN4CCCCCC4)nn3)n2)cc1 [MY-8, N-(3-(azepan-1-yl)propyl)-6-(3-(4-methoxyphenyl)-1,2,4-oxadiazol-5-yl)pyridazin-3-amine]",MYCN mRNA level,MYCN mRNA,clear decreases of mRNA level
same,NBEB cell growth (cell confluence),NBEB cells,significant inhibition of NBEB cell growth
"COc1ccc(-c2noc(-c3ccc(NCCCNc4c5ccc(Cl)cc5nc5ccc(OC)cc45)nn3)n2)cc1 [B33, N^1-(6-chloro-2-methoxyacridin-9-yl)-N^3-(6-(3-(4-methoxyphenyl)-1,2,4-oxadiazol-5-yl)pyridazin-3-yl)propane-1,3-diamine]",binding to dsDNA on SPR,dsDNA,did not show any binding to dsDNA
"COc1ccc(-c2noc(-c3ccc(NCCCN4CCCC4)nn3)n2)cc1 [MY-1, 6-(3-(4-methoxyphenyl)-1,2,4-oxadiazol-5-yl)-N-(3-(pyrrolidin-1-yl)propyl)pyridazin-3-amine]","fluorescence quenching, 3′-Cy5 labeled oligo",MYCN G4 DNA; 100 μM MY-1,0%
same,"fluorescence quenching, 5′-Cy5 labeled oligo",MYCN G4 DNA; 100 μM MY-1,15%
same,"fluorescence quenching, A11 2-AP DNA",MYCN G4 DNA; 100 μM MY-1 vs DMSO control,~100%
same,"fluorescence quenching, A18 2-AP DNA",MYCN G4 DNA; 100 μM MY-1 vs DMSO control,80%
same,"fluorescence quenching, A24 2-AP DNA",MYCN G4 DNA; 100 μM MY-1 vs DMSO control,70%
